One test relates to peritoneal cancer. Particulars: intraperitoneal administration; cited from earlier work.
Test [1] deals with stage T0 and T1 bladder tumors obtained from human patients. The note with it: cited from earlier work.
The subject of test [2] is human head and neck FaDu xenografts. As to the kind of experiment: nano-sized latex bead delivery and dispersion in tumors after tumor priming. Format: in vivo, Mice. Particulars: paclitaxel 40 milligrams per kilogram intravenously, beads 48 hours later, tumors excised 24 hours after.
Method: Mice were implanted subcutaneously with human head and neck FaDu xenografts, and divided in two groups. […] The control group (without tumor priming) only received the vehicle. Forty-eight hours later, animals received an intravenous injection of red fluorescent latex beads of 100, or 200 nm diameter. Tumors were excised 24 hours after the injection of the beads and examined. […] The percentage of area in tumors occupied by particles was calculated as (total number of deep-derived pixels) divided by (total number of pixels per microscopic field), which provided a measurement of the dispersion area. The average bead concentration in tumors was the average fluorescence intensity, which was calculated as (mean intensity of bead-derived pixels multiplied by total number of bead-derived pixels) divided by (total number of pixels per microscopic field). Eight tumors were used per data point.
For test [3], the system named is Histocultures of head and neck FaDu xenograft tumors. As to the kind of experiment: Lipo-siRNA penetration into tumor histocultures with and without tumor priming. The test is classed as cell-based. Particulars: paclitaxel 0.5 μM maintained for 48 hour, versus no priming. As to the method: Histocultures of head and neck FaDu xenograft tumors were maintained in vitro. Penetration of siRNA, formulated in cationic liposomes, was evaluated with and without tumor priming pretreatment. To facilitate detection, siRNA were labeled with green fluorescence (siGLO) and lipids were labeled with a red fluorescence marker. […] In the overlay picture, the red and green fluorescent images are combined. […] The bars indicate a length of 100 μm.

The subject of test [4] is Human RT4 bladder transitional bladder cancer cells. As to the kind of experiment: cytotoxicity in RT4 cells, immediate and delayed effect, sulforhodamine B assay. The test is classed as cell-based. The note with it: immediate effect. On the technique in general: In SRB staining, fixed cells bind dye roughly in proportion to their protein.

Here are results for two molecules from patent US8043631B2, “Tumor targeting drug-loaded particles” (priority 2005, dated 2011).

Molecules are shown by their SMILES.

Regarding `N.N.[Cl][Pt][Cl]` [cisplatin], in the test with peritoneal cancer, the “extension of survival time in patients” value is on record as “about 20%”.
For orientation: IC50 means the concentration that inhibits the measured activity by half. With `CC(=O)O[C@H]1C(=O)[C@@]2(C)[C@H]([C@H](OC(=O)c3ccccc3)[C@]3(O)C[C@H](OC(=O)[C@H](O)[C@@H](NC(=O)c4ccccc4)c4ccccc4)C(C)=C1C3(C)C)[C@]1(OC(C)=O)CO[C@@H]1C[C@@H]2O` [paclitaxel], the 50% inhibitory concentration (IC50) in test [1] is 1.2 µM. The “delivery of latex beads to tumors after tumor priming” value in test [2] was “enhanced the delivery of the 100- and 200-nm latex beads”. The “penetration of siGLO-loaded liposomes after paclitaxel priming” value in test [3] is “at least five-fold deeper”. Also, the maximal inhibition in test [4] (48 hours) is recorded as 60%; in test [4] (96 hours) it was 84%.
